How the values were obtained:
Assay in all cases: differential drug sensitivity score (dDSS) relative to sarcoma reference cohort mean DSS (DSS units (0-100 scale difference)); higher = more selective sensitivity than reference sarcomas
Settings in all cases: exposure time: 72 h; concentration range: 10-10000 nM
ES-ZH004 = system: ES-ZH004 (patient-derived Ewing sarcoma tumoroid)
Procedure: (§1)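 Drug response profiling of patient-derived Ewing sarcoma and CIC::DUX4 sarcoma tumoroid models (or cells tested directly after isolation from the tumor, 'direct'). The DSS is the normalised AUC (0-100); dDSS is the sample DSS minus the mean DSS of a 34-sarcoma reference cohort profiled in the same lab.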

ES-ZH002 = system: ES-ZH002 (patient-derived Ewing sarcoma tumoroid)
Procedure: as §1

CDS-ZH001-2 = system: CDS-ZH001-2 (patient-derived CIC-DUX4 sarcoma tumoroid)
Procedure: as §1

ES-ZH001 = system: ES-ZH001 (patient-derived Ewing sarcoma tumoroid)
Procedure: as §1

ES-ZH016 direct = system: ES-ZH016 direct (Ewing sarcoma cells right after isolation)
Procedure: as §1

CDS-ZH003 = system: CDS-ZH003 (patient-derived CIC-DUX4 sarcoma tumoroid)
Procedure: as §1

ES-ZH008 = system: ES-ZH008 (patient-derived Ewing sarcoma tumoroid)
Procedure: as §1

ES-ZH016 = system: ES-ZH016 (patient-derived Ewing sarcoma tumoroid)
Procedure: as §1

CDS-ZH002 = system: CDS-ZH002 (patient-derived CIC-DUX4 sarcoma tumoroid)
Procedure: as §1

CDS-ZH001 = system: CDS-ZH001 (patient-derived CIC-DUX4 sarcoma tumoroid)
Procedure: as §1

CDS-ZH002 direct = system: CDS-ZH002 direct (CIC-DUX4 sarcoma cells right after isolation)
Procedure: as §1

ES-ZH009 = system: ES-ZH009 (patient-derived Ewing sarcoma tumoroid)
Procedure: as §1

ES-ZH007 = system: ES-ZH007 (patient-derived Ewing sarcoma tumoroid)
Procedure: as §1

| SMILES | differential drug sensitivity score (ES-ZH004) | differential drug sensitivity score (ES-ZH002) | differential drug sensitivity score (CDS-ZH001-2) | differential drug sensitivity score (ES-ZH001) | differential drug sensitivity score (ES-ZH016 direct) | differential drug sensitivity score (CDS-ZH003) | differential drug sensitivity score (ES-ZH008) | differential drug sensitivity score (ES-ZH016) | differential drug sensitivity score (CDS-ZH002) | differential drug sensitivity score (CDS-ZH001) | differential drug sensitivity score (CDS-ZH002 direct) | differential drug sensitivity score (ES-ZH009) | differential drug sensitivity score (ES-ZH007) |
| --- | --- | --- | --- | --- | --- | --- | --- | --- | --- | --- | --- | --- | --- |
| O=C(Nc1ccncc1)c1cc([N+](=O)[O-])ccc1Cl | 11.7 | 14.8 | -2.3 | 11.8 | -0.6 | -14.7 | 12.2 | -2.4 | -3 | -0.7 | 5.4 | -3.3 | 0.8 |
| O=C(c1cc(Cc2n[nH]c(=O)c3ccccc23)ccc1F)N1CCN(C(=O)C2CC2)CC1 [Olaparib] | 11.2 | 15 | -2 | 8.4 | 11.3 | -5.3 | 10.3 | 7.1 | -5.3 | -3.8 | -5.3 | -0.2 | 4 |
| CC(C)NCCCn1c(Sc2cc3c(cc2I)OCO3)nc2c(N)ncnc21 [Zelavespib] | -2.1 | 3.4 | 3.1 | 0.8 | 2.3 | 4.4 | 5.8 | -0.6 | -7.7 | 0.5 | -1.1 | 7.3 | 0.4 |

Reference: the supplement of paper PMC12370961
